Experimental data from patent publication US20220348876A1, “METABOLISM GUIDES DEFINITIVE LINEAGE SPECIFICATION DURING ENDOTHELIAL TO HEMATOPOIETIC TRANSITION” (Amniotics AB, priority 2019, published 2022).

Key:
LT-HSCs = assay: CFU assay of LT-HSCs sorted from E14.5 fetal livers of treated embryos; assay type: in vivo, mice; conditions: DCA-treated embryos vs control and UK5099
Description: (§1) Pregnant female C57Bl/6xB6.SJL mice were injected intraperitoneally at E9.5 with UK5099 (4 mg/kg) or DCA (200 mg/kg) or PBS (control). Embryos were harvested at E14.5 and individually weighed and processed. Fetal livers were dissected and homogenized in 800 μL ice cold PBS supplemented with 2% fetal bovine serum (FBS) and FL cells were washed in PBS with 2% FBS. For the differentiated lineage panel, cells were stained with B220 and CD19 (B-cell markers)-PE, CD3e-APC, Ter119-PeCy7 and CD71-FITC and analyzed on a BD FACSARIA III. For the HSC panel, samples were first treated with ammonium chloride solution (STEMCELL Technologies, France) to lyse red blood cells, washed twice in ice cold PBS with 2% FBS, stained with CD3e, B220, Ter119, Gr1 (Lineage)-PeCy5, c-Kit-Efluor780, Sca1-BV421, CD48-FITC, CD150-BV605 and 7-AAD (for dead cell exclusion) and analyzed on a BD FACSARIA III. […] For plating of CFU assays, 100 LT-HSCs were sorted (gating strategy shown in FIG. 13, d) and resuspended in 3.0 mL Methocult M3434 (STEMCELL Technologies, France). Each mixture was divided onto 2 wells of a non-tissue culture treated 6-well plate. Following a 14-day incubation in a humidified incubator at 37° C., 5% CO2, 20% O2, colonies were morphologically distinguished and scored.

HE cells = assay: globin transcript q-PCR in CFU colonies; assay type: cell-based, human; conditions: normalized to KLF1, relative to non-treated
Description: Subcultured HE cells were treated with StemPro Accutase Cell Dissociation Reagent for 2 minutes at 37° C. and dissociated cells were resuspended in 3 ml Methocult H4230 (STEMCELL Technologies, France) (prepared according to manufacturer's instructions, with 20 mL Iscove's Modified Dulbecco's Medium containing 2.5 μg hSCF, 5 μg GM-CSF, 2.5 μg IL-3 and 500 U EPO). Each mixture was divided onto 2 wells of a non-tissue culture treated 6-well plate. Following a 12-day incubation in a humidified incubator at 37° C., 5% CO2, 20% O2, colonies were morphologically distinguished and scored. For globin analysis, colonies in Methocult wells were harvested with PBS, washed thoroughly and frozen in RLT buffer with β-mercaptoethanol. Following RNA extraction and RT (Qiagen), gene expression was assessed with taqman probes by q-PCR. The taqman probes used in this study are HBA1/2 (Hs00361191_g1), HBE1 (Hs00362216_m1), HBG2/1 (Hs00361131_g1) and KLF1 (Hs00610592_m1).

C57Bl/6xB6.SJL mice = assay: In vivo compound injection of pregnant mice, fetal liver analysis at E14.5
Description: as §1

SMILES	decrease in the BFU-E to CFU-GM ratio (LT-HSCs)	HBA1-2 (adult globin) expression (HE cells)	HBE1 (embryonic) globin transcripts (HE cells)	HBG1-2 (fetal) globin transcripts (HE cells)	effect on in vivo EHT and hematopoiesis (C57Bl/6xB6.SJL mice; UK5099 4 mg/kg i.p. at E9.5)	frequency of phenotypic long-term HSCs (LT-HSCs) (C57Bl/6xB6.SJL mice; fetal liver E14.5, i.p. at E9.5, UK5099 4 mg/kg or DCA 200 mg/kg)
O=C(O)C(Cl)Cl [DCA, dichloroacetate]	80%					
N#C/C(=C\c1cn(-c2ccccc2)c2ccccc12)C(=O)O [UK5099]		did not have an effect	significant increase	significant increase	No significant effect	not affected
